Our source for the EC50, IC50 and Ki values is BindingDB's records for patent US20250019357 (Tactogen, 2025).

SMILES strings stand for the structures. Bounds are passed on as bounds.

The target of assay [1] is 5-hydroxytryptamine receptor 1B (Homo sapiens, UniProt P28222). As to the kind of experiment: 5-HT1BR cAMP Secondary Messenger Agonist Assay. An excerpt:
The 5-HT1BR cAMP secondary messenger agonist assay used a panel of CHO-K1 cell lines stably expressing non-tagged GPCRs that endogenously signal through cAMP. Hit Hunter cAMP assays monitored the activation of a GPCR via Gi and Gs secondary messenger signaling in a homogenous, non-imaging assay format using DiscoverX Enzyme Fragment Complementation (EFC) with β-galactosidase as the functional endpoint.

The target of assay [2] is Sodium-dependent serotonin transporter (Homo sapiens, UniProt P31645). In words: Human Serotonin Transporter (SERT, SLC6A4) Functional Antagonist Uptake Assay. Here is the method: (§1) Benzofuran derivatives were evaluated for inhibiting the human 5-HT transporter (hSERT) as expressed in CHO cells using an antagonist radioligand assay (Tatsumi, M. et al. (1999), Eur. J. Pharmacol., 368: 277-283).

Experiment in assay [3]: as above
Here is the method:
as §1

Chain of Sodium-dependent serotonin transporter (P31645 whole entry): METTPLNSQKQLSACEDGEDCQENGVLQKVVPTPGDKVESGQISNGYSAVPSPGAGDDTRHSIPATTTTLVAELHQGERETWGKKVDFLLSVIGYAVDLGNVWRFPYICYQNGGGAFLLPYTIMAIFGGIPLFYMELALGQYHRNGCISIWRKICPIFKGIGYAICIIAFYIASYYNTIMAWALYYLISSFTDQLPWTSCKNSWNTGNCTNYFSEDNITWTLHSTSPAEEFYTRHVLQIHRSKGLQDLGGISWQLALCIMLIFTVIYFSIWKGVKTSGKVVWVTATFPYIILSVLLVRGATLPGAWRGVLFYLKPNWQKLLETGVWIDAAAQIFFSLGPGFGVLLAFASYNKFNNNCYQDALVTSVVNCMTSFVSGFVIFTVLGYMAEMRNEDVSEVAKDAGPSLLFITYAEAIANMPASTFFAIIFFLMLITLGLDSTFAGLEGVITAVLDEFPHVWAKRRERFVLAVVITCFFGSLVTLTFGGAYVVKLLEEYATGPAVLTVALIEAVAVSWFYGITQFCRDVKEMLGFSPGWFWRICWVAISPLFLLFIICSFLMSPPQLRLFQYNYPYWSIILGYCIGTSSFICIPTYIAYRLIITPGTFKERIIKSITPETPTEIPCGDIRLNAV
Chain of 5-hydroxytryptamine receptor 1B (P28222 whole entry, the tested form may be a part): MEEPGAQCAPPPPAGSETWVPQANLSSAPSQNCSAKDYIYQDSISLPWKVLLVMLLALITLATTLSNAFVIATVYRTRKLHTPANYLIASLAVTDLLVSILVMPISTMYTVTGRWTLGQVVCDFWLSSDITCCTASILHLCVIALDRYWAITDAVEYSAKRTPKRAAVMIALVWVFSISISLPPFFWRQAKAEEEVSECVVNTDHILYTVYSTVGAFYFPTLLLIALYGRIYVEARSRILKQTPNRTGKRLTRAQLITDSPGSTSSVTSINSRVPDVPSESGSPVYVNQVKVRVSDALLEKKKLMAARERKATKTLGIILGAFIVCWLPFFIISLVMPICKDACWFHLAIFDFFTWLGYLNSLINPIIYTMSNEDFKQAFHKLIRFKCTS

What is called EC50 is the concentration giving half of the maximal effect. Read a low EC50 as greater potency. In the case of `CNC(C)C(=O)c1ccc2occc2c1` (single isomer, unassigned; form 2) [US20250019357, Compound (+)-BK-5MAPB], the EC50 in assay [1] was determined as 3070 nM. As a reminder, the IC50 is the concentration that inhibits the measured activity by half. The low end stands for inhibition by little substance, the high end for a need for much substance. What is called Ki is a dissociation constant, usually derived from enzyme kinetics or from competition with a known ligand. Read a low Ki as tighter binding. For `CC[C@H](Cc1ccc2ccoc2c1)NC` [US20250019357, Compound R-(-)-6-MBPB], in assay [2], 5700 nM corresponded to half-maximal inhibition (IC50) and affinity was put at a Ki of 2600 nM. Take `CNC(C)C(=O)c1ccc2ccoc2c1` (single isomer, unassigned; form 2) [US20250019357, Compound (+)-BK-6MAPB]: the EC50 in assay [1] was > 10000 nM. Take `CC[C@@H](Cc1ccc2ccoc2c1)NC` [US20250019357, Compound S-(+)-6-MBPB]: in assay [2], the IC50 stood at 2700 nM and the affinity corresponds to a Ki of 1200 nM. As for `CCC(NC)C(=O)c1ccc2occc2c1` (single isomer, unassigned; form 1) [US20250019357, Compound (+)-BK-5MBPB], the EC50 in assay [1] was > 30000 nM. On to `CC[C@@H](Cc1ccc2ccoc2c1)NC` [US20250019357, Compound S-6-MBPB], for which the EC50 in assay [3] was found to be 54.1 nM. Still for that read-out and setting: the result for `CC[C@H](Cc1ccc2ccoc2c1)NC` [US20250019357, Compound R-6-MBPB] reads 172 nM. Turning to `CNC(C)C(=O)c1ccc2occc2c1` (single isomer, unassigned; form 1) [US20250019357, Compound (-)-BK-5MAPB], a half-maximal effect in assay [1] (EC50) was put at 77.7 nM. Same read-out and setting: the figure for `CCC(NC)C(=O)c1ccc2occc2c1` (single isomer, unassigned; form 2) [US20250019357, Compound (-)-BK-5MBPB] is 6610 nM.
